Molecules are shown by their SMILES.

The results in this text go back to patent US11266640B2, “Polycyclic compound acting as IDO inhibitor and/or IDO-HDAC dual inhibitor” (Hangzhou Innogate Pharma Co., Ltd., priority 2017, dated 2022).

T1 sequence (P14902 whole entry): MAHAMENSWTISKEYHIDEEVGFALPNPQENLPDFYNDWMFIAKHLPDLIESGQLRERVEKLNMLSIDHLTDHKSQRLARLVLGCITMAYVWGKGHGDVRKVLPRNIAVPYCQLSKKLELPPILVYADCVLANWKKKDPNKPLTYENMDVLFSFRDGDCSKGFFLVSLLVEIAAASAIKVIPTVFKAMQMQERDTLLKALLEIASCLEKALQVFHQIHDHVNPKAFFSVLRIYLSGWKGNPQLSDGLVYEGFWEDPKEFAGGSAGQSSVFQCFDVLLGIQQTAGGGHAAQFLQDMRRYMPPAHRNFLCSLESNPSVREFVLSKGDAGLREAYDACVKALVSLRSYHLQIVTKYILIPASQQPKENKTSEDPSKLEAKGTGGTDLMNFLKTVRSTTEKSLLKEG

This assay addresses T1, IDO (Homo sapiens, UniProt P14902).
T1 construct: endogenous in cells; host or cells: HeLa cells treated with IFNγ
As to the kind of experiment: Hela cell-based IDO inhibitory activity test (IFNγ added). Conditions: Hela cells with IFNγ, 48 hours incubation, OD 480 nm. As to the method:
2. Hela Cell-Based IDO Inhibitory Activity Test Method
The first step: cell plating. Prepare complete medium and mix well. Cell lines that are in good growth state are selected. Remove the cell culture flask from the incubator and check the cell name, media type and cell generation number on the bottle. The medium was discarded, digested with trypsin, and after digestion, the cells were neutralized with serum-containing medium, and the cells were blown to cause the cells to fall off. Pipette the cell suspension into a centrifuge tube and centrifuge at a speed of 800-1000 for 3-5 minutes. Aspirate the cell supernatant from the centrifuge tube. Add an appropriate volume of medium to the tube and gently blister to resuspend the cells. Count using a Vi-Cell XR cytometer. Adjust the cell suspension to the appropriate concentration. The cell suspension was added to a white-well 96-well plate at 80 μl/well according to the schematic below. The second step: preparation and addition of the compound. Compounds were formulated in DMSO at 600 μM and the compounds were diluted in DMSO according to a multiple of the following table to give 6 concentration gradients of the compound. The 200× compound prepared in DMSO was formulated into a 10× dilution solution in proportion to the corresponding cell culture medium. After 24 hours of cell seeding, 10 μL of 10× corresponding compound dilution and 10 μL of 10×IFNγ were added to each well. Incubate for 48 hours in a 37° C. incubator. The third step: detection and analysis. Cell morphology was observed under an inverted microscope. 80 μL of the supernatant was added to a 3894 plate, 10 μL of 6.1 N trichloroacetic acid was added to each well, shaken for 2 minutes, and placed in a 50-degree incubator for 30 minutes. Centrifuge, 2500 rpm for 10 minutes.
Take 70 μL of the supernatant and transfer to a 3635 UV plate, add 70 μL of the reaction solution, and shake for 2 minutes to make the reaction uniform. Use EnSpire (PE) to detect data with an OD of 480 nm. The cell culture plate 3903 was allowed to stand at room temperature for 30 minutes. 100 μL/well of the cell activity detecting reagent was added to the culture plate. Mix on a shaker for 2 minutes to induce cell lysis. The 96-well plate was allowed to stand at room temperature for 10 minutes to stabilize the luminescence signal. Paste the white base film on the bottom of the plate and tested with Flexstation3 plate (the relevant setting is: Illumination, integration time 500 ms). Record the experimental results obtained from the analysis.
The IC50 value is expressed in the following manner: […]
As usually defined, the IC50 is the concentration that inhibits the measured activity by half. Read a high IC50 as lower potency. As to `O=C(C[C@H]1C[C@H]2CC(c3ccnc4ccc(F)cc34)C[C@H]2C1)Nc1ccc2c(c1)OC(F)(F)O2` (stereo partly drawn) [Compound 16], the IC50 was over 0.1 µM.

In the case of `O=C(Nc1ccc(Cl)cc1)C1CC12CCC(c1ccnc3ccc(F)cc13)CC2` (stereo not drawn) [Compound 56], the concentration for half-maximal inhibition (IC50) is 0.005 to 0.025 µM. Next, `O=C(C[C@@H]1C[C@@H]2C[C@H](c3ccnc4ccc(F)cc34)C[C@@H]2C1)Nc1ccc2c(c1)OCC1COCCN21` (stereo partly drawn) [Compound 13]: over 0.1 µM. The same measure for `O=C(Nc1ccc(Cl)cn1)C(F)(F)[C@H]1C[C@H]2C[C@@H](c3ccnc4ccc(F)cc34)C[C@H]2C1` [Compound 104]: 0.025 to 0.1 µM; for `CC(C(=O)Nc1cnc(N)nc1)[C@H]1C[C@H]2C[C@@H](c3ccnc4ccc(F)cc34)C[C@H]2C1` (stereo partly drawn) [Compound 30]: over 0.1 µM.

`CC(C)(C(=O)Nc1ccc(Cl)cc1)[C@H]1C[C@H]2C[C@@H](c3ccnc4ccc(F)cc34)C[C@H]2C1` [Compound 60]: the IC50 was at most 0.005 µM. `CC(C(=O)Nc1ccc(-c2cnn(C3CC3)c2)nc1)[C@H]1C[C@H]2C[C@@H](c3ccnc4ccc(F)cc34)C[C@H]2C1` (stereo partly drawn) [Compound 32] registered a 50% inhibitory concentration (IC50) of over 0.1 µM. The same measure for `CC(C(=O)Nc1ccc(C(F)(F)F)nc1)[C@H]1C[C@H]2C[C@@H](c3ccnc4ccc(F)cc34)C[C@H]2C1` (stereo partly drawn) [Compound 80]: at most 0.005 µM; for `CC(C(=O)Nc1ccc(I)cn1)C1C[C@H]2CC(c3ccnc4ccc(F)cc34)C[C@H]2C1` (stereo partly drawn) [Compound 76]: at most 0.005 µM; for `C#Cc1ccc(NC(=O)C2([C@H]3C[C@H]4C[C@@H](c5ccnc6ccc(F)cc56)C[C@H]4C3)CC2)cn1` [Compound 97]: 0.005 to 0.025 µM.

`CC(C(=O)Nc1ccc(Cl)cc1)[C@H]1C[C@]2(C)C[C@H](c3ccnc4ccc(F)cc34)C[C@]2(C)C1` (stereo partly drawn) [Compound 41] came in with an IC50 of 0.005 to 0.025 µM. In the case of `O=C(C[C@@H]1C[C@@H]2C[C@@]3(c4ccnc5ccc(F)cc45)O[C@H]3[C@@H]2C1)Nc1ccc(Cl)cc1` [Compound 49], the IC50 is 0.005 to 0.025 µM.

For `C#Cc1ccc(NC(=O)C[C@@H]2C[C@H]3CC(c4ccnc5ccc(F)cc45)C[C@H]3C2)cn1` (stereo partly drawn) [Compound 24], the IC50 is at most 0.005 µM. The same measure for `O=C(C[C@]1(O)C[C@H]2C[C@@H](c3ccnc4ccc(F)cc34)C[C@H]2C1)Nc1ccc(Cl)cc1` [Compound 58]: 0.005 to 0.025 µM. The same measure for `CC(C(=O)Nc1ccc(C(F)(F)F)cn1)[C@H]1C[C@H]2C[C@@H](c3ccnc4ccc(F)cc34)C[C@H]2C1` (stereo partly drawn) [Compound 81]: 0.005 to 0.025 µM; for `CC#Cc1ccc(NC(=O)C(C)[C@H]2C[C@H]3C[C@@H](c4ccnc5ccc(F)cc45)C[C@H]3C2)cn1` (stereo partly drawn) [Compound 83]: over 0.1 µM; for `CC(C(=O)Nc1ccc(Cl)cn1)N1C[C@H]2C[C@@H](c3ccnc4ccc(F)cc34)C[C@H]2C1` (stereo partly drawn) [Compound 99]: 0.005 to 0.025 µM. The same measure for `N#Cc1ccc(NC(=O)C[C@H]2C[C@@H]3C[C@H](c4ccnc5ccc(F)cc45)C[C@@H]3C2)nc1` [Compound 70]: at most 0.005 µM; for `O=C(C[C@@H]1C[C@@H]2CC(c3ccncc3F)=C[C@@H]2C1)Nc1ccc(Cl)cc1` [Compound 53]: over 0.1 µM. In turn, `N#Cc1ccc(NC(=O)C[C@H]2C[C@@H]3C[C@H](c4ccnc5ccc(F)cc45)C[C@@H]3C2)cn1` [Compound 71] had an IC50 of 0.005 to 0.025 µM. The same measure for `O=C(C[C@@H]1C[C@@H]2C[C@@H](N3CCCc4ccccc43)C[C@@H]2C1)Nc1ccc(Cl)cc1` [Compound 52]: over 0.1 µM; for `O=C(C[C@H]1C[C@@H]2CC(c3ccncc3F)=C[C@@H]2C1)Nc1ccc(Cl)cc1` [Compound 54]: over 0.1 µM. Next, `O=C(C[C@@H]1C[C@@H]2CC(c3ccnc4ccc(F)cc34)=C[C@@H]2C1)Nc1ccc(Cl)cn1` [Compound 61]: 0.005 to 0.025 µM; `COC(=O)c1ccc(NC(=O)C(C)[C@H]2C[C@H]3C[C@@H](c4ccnc5ccc(F)cc45)C[C@H]3C2)cc1` (stereo partly drawn) [Compound 8]: 0.005 to 0.025 µM.

`CC(C(=O)Nc1cncc(Cl)c1)[C@H]1C[C@H]2C[C@@H](c3ccnc4ccc(F)cc34)C[C@H]2C1` (stereo partly drawn) [Compound 35] came in with an IC50 of 0.005 to 0.025 µM.

For `CC(C(=O)Nc1ccc(Cl)nn1)[C@H]1C[C@H]2C[C@@H](c3ccnc4ccc(F)cc34)C[C@H]2C1` (stereo partly drawn) [Compound 29], the IC50 lay in the range of 0.025 to 0.1 µM. Next, `C#Cc1ccc(NC(=O)[C@H](C)[C@@H]2C[C@H]3CC(c4ccnc5ccc(F)cc45)C[C@H]3C2)nc1` (stereo partly drawn) [Compound 75]: 0.005 to 0.025 µM.

On to `C#Cc1ccc(NC(=O)C(C)[C@H]2C[C@H]3C[C@@H](c4ccnc5ccc(F)cc45)C[C@H]3C2)cn1` (stereo partly drawn) [Compound 37], for which the IC50 is at most 0.005 µM.

Compound `CC(C(=O)Nc1ccc(Cl)nc1)[C@H]1C[C@]2(C)C[C@H](c3ccnc4ccc(F)cc34)C[C@]2(C)C1` (stereo partly drawn) [Compound 43] came in with an IC50 of 0.025 to 0.1 µM. The same measure for `CC(C)(O)C#Cc1ccc(NC(=O)C[C@@H]2C[C@H]3CC(c4ccnc5ccc(F)cc45)C[C@H]3C2)nc1` (stereo partly drawn) [Compound 103]: over 0.1 µM; for `C#Cc1ccc(NC(=O)C[C@H]2C[C@@H]3CC(c4ccnc5ccc(F)cc45)=C[C@@H]3C2)nc1` [Compound 65]: 0.005 to 0.025 µM. The same measure for `O=C(Nc1ccc(Cl)cc1)N1C[C@H]2C[C@@H](c3ccnc4ccc(F)cc34)C[C@H]2C1` [Compound 48]: over 0.1 µM; for `N#Cc1ccc(NC(=O)C[C@@H]2C[C@@H]3CC(c4ccnc5ccc(F)cc45)=C[C@@H]3C2)nc1` (racemic) [Compound 69]: at most 0.005 µM. Next, `CC#Cc1ccc(NC(=O)C(C)(C)[C@H]2C[C@H]3C[C@@H](c4ccnc5ccc(F)cc45)C[C@H]3C2)cn1` [Compound 91]: at most 0.005 µM. For `O=C(C[C@H]1C[C@H]2CC(c3ccnc4ccc(F)cc34)C[C@H]2C1)Nc1ccc2[nH]ncc2c1` (stereo partly drawn) [Compound 14], the IC50 is over 0.1 µM. The same measure for `O=C(CN1C[C@H]2C[C@@H](c3ccnc4ccc(F)cc34)C[C@H]2C1)Nc1ccc(Cl)cc1` [Compound 46]: 0.025 to 0.1 µM. Next, `CC(C)(C(=O)Nc1ccc(Cl)cn1)N1C[C@H]2C[C@@H](c3ccnc4ccc(F)cc34)C[C@H]2C1` [Compound 100]: over 0.1 µM; `O=C(Nc1ccc(Cl)cc1)C(=O)N1C[C@H]2C[C@@H](c3ccnc4ccc(F)cc34)C[C@H]2C1` [Compound 47]: 0.025 to 0.1 µM. `CC(C(=O)Nc1nncs1)[C@H]1C[C@H]2C[C@@H](c3ccnc4ccc(F)cc34)C[C@H]2C1` (stereo partly drawn) [Compound 31] yielded an IC50 of over 0.1 µM. Next, `CC(C(=O)Nc1ccc(Cl)cc1)N1C[C@H]2C[C@@H](c3ccnc4ccc(F)cc34)C[C@H]2C1` (stereo partly drawn) [Compound 44]: at most 0.005 µM; `CC(C(=O)Nc1ccc(C#N)cc1)[C@H]1C[C@H]2C[C@@H](c3ccnc4ccc(F)cc34)C[C@H]2C1` (stereo partly drawn) [Compound 36]: at most 0.005 µM; `O=C(Nc1ccc(Cl)cn1)C1C[C@@H]2C[C@H](c3ccnc4ccc(F)cc34)C[C@@H]2C1` (single isomer, unassigned) [Compound 108]: 0.005 to 0.025 µM. Next, `CC(C)(C(=O)Nc1ccc(C#N)nc1)[C@H]1C[C@H]2C[C@@H](c3ccnc4ccc(F)cc34)C[C@H]2C1` [Compound 89]: at most 0.005 µM; `O=C(C[C@H]1C[C@H]2CC(c3ccnc4ccc(F)cc34)C[C@H]2C1)Nc1ccc(Cl)cn1` (stereo partly drawn) [Compound 17]: 0.005 to 0.025 µM; `C[C@@H](C(=O)Nc1ccc(Cl)cn1)[C@H]1C[C@H]2CC(c3ccnc4ccc(F)cc34)C[C@H]2C1` (single isomer, unassigned) [Compound 26A]: at most 0.005 µM.

`N#Cc1ccc(NC(=O)C[C@@H]2C[C@@H]3C[C@H](c4ccnc5ccc(F)cc45)C[C@@H]3C2)cn1` [Compound 102] yielded an IC50 of at most 0.005 µM. The same measure for `CC(C(=O)Nc1ccc(Cl)nc1)C1=C[C@H]2C[C@@H](c3ccnc4ccc(F)cc34)C[C@H]2C1` (stereo partly drawn) [Compound 39]: at most 0.005 µM. Next, `O=C(C[C@@H]1C[C@@H]2CC(c3ccnc4ccc(F)cc34)=C[C@@H]2C1)Nc1ccc(Cl)nc1` (racemic) [Compound 62]: at most 0.005 µM; `CC(C(=O)Nc1ccc(O)nc1)[C@H]1C[C@H]2C[C@@H](c3ccnc4ccc(F)cc34)C[C@H]2C1` (stereo partly drawn) [Compound 28]: over 0.1 µM; `CC(C(=O)Nc1ccc(C#CC(C)(C)O)cn1)[C@@H]1C[C@H]2C[C@@H](c3ccnc4ccc(F)cc34)C[C@H]2C1` (stereo partly drawn) [Compound 78]: 0.025 to 0.1 µM. For the compound `CC(C(=O)Nc1ccc(C#CC(C)(C)O)cn1)[C@H]1C[C@H]2C[C@@H](c3ccnc4ccc(F)cc34)C[C@H]2C1` (stereo partly drawn) [Compound 77], the IC50 is at most 0.005 µM.
